# ChEMBL document CHEMBL3991601, “The target landscape of clinical kinase drugs” (Science, 2017)
# Calls of active or inactive are those of the source.
# Biological target: Protein kinase C theta type (Homo sapiens, UniProt Q04759)
# Also: in the data inactive means no Kd found up to 30 µM.
# Chain of Protein kinase C theta type (Q04759 whole entry): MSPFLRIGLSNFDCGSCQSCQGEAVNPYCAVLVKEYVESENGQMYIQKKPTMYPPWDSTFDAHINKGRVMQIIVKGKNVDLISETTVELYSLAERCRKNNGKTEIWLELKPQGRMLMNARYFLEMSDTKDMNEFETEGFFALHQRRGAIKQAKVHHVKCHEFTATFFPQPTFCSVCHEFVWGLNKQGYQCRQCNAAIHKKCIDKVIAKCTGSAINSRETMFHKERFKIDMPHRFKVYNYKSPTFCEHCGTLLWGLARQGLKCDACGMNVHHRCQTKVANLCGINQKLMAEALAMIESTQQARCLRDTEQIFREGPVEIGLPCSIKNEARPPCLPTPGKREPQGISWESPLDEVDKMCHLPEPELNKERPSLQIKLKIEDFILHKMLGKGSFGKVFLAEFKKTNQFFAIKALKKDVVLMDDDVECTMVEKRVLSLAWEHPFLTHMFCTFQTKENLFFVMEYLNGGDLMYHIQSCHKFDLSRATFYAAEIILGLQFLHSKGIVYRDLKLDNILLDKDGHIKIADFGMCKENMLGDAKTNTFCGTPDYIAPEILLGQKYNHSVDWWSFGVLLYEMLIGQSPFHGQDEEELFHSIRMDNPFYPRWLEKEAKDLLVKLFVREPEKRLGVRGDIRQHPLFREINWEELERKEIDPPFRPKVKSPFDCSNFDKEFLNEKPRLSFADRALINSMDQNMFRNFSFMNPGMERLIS
row,SMILES,Kd
1,O=c1sn(-c2cccc3ccccc23)c(=O)n1Cc1ccccc1 [TIDEGLUSIB],> 30 µM (inactive)
2,CN1N=C(N)c2cn([C@@H]3O[C@H](COP(=O)(O)O)[C@@H](O)[C@H]3O)c3ncnc1c23 [TRICIRIBINE PHOSPHATE],> 30 µM (inactive)
3,CCCS(=O)(=O)Nc1ccc(F)c(C(=O)c2c[nH]c3ncc(-c4ccc(Cl)cc4)cc23)c1F [VEMURAFENIB],> 30 µM (inactive)
4,O=C(Nc1ccc(-c2ccnc(Nc3ccc(N4CCOCC4)cc3)n2)cc1)C1CCCN1 (stereo not drawn) [XL-019],> 30 µM (inactive)

# Biological target: Epidermal growth factor receptor (Homo sapiens, UniProt P00533)
# Sequence (P00533 whole entry): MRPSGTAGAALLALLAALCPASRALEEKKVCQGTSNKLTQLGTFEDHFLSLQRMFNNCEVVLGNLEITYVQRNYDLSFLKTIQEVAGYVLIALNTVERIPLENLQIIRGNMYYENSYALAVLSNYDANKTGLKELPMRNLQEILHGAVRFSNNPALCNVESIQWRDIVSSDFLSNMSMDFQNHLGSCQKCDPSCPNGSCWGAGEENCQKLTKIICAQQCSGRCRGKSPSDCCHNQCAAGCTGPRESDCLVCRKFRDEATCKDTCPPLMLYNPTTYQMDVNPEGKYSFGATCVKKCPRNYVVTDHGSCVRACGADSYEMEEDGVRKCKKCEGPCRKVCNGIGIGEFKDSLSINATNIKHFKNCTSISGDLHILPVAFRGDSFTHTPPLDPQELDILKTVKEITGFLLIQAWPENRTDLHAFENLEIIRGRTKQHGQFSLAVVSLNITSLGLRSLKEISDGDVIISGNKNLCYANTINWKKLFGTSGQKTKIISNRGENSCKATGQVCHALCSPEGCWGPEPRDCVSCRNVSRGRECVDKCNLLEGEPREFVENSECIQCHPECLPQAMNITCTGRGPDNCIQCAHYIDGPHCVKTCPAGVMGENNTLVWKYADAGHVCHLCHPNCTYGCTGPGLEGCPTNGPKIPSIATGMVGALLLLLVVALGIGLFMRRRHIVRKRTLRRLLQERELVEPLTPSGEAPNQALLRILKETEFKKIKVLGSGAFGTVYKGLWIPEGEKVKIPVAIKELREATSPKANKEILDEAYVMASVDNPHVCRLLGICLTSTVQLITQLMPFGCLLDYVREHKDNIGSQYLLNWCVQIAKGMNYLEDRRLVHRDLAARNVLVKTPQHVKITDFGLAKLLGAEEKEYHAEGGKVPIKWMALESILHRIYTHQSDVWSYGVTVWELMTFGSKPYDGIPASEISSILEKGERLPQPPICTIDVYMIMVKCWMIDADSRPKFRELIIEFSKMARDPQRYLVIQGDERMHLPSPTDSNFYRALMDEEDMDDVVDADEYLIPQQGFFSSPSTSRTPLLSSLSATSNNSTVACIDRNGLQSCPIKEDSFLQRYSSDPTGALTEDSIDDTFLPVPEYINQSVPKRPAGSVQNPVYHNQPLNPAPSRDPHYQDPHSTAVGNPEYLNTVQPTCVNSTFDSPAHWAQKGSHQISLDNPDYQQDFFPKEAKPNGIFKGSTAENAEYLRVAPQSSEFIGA
row,SMILES,Kd
1,C[C@@H](c1ccc2nccn2c1)n1nnc2ncc(-c3cnn(C)c3)nc21 [SAVOLITINIB],> 30 µM (inactive)
2,O=c1sn(-c2cccc3ccccc23)c(=O)n1Cc1ccccc1 [TIDEGLUSIB],> 30 µM (inactive)
3,CN1N=C(N)c2cn([C@@H]3O[C@H](COP(=O)(O)O)[C@@H](O)[C@H]3O)c3ncnc1c23 [TRICIRIBINE PHOSPHATE],> 30 µM (inactive)
4,O=C(Nc1ccc(-c2ccnc(Nc3ccc(N4CCOCC4)cc3)n2)cc1)C1CCCN1 (stereo not drawn) [XL-019],> 30 µM (inactive)

# Biological target: Serine/threonine-protein kinase MRCK gamma (Homo sapiens, UniProt Q6DT37)
# Sequence (Q6DT37 whole entry): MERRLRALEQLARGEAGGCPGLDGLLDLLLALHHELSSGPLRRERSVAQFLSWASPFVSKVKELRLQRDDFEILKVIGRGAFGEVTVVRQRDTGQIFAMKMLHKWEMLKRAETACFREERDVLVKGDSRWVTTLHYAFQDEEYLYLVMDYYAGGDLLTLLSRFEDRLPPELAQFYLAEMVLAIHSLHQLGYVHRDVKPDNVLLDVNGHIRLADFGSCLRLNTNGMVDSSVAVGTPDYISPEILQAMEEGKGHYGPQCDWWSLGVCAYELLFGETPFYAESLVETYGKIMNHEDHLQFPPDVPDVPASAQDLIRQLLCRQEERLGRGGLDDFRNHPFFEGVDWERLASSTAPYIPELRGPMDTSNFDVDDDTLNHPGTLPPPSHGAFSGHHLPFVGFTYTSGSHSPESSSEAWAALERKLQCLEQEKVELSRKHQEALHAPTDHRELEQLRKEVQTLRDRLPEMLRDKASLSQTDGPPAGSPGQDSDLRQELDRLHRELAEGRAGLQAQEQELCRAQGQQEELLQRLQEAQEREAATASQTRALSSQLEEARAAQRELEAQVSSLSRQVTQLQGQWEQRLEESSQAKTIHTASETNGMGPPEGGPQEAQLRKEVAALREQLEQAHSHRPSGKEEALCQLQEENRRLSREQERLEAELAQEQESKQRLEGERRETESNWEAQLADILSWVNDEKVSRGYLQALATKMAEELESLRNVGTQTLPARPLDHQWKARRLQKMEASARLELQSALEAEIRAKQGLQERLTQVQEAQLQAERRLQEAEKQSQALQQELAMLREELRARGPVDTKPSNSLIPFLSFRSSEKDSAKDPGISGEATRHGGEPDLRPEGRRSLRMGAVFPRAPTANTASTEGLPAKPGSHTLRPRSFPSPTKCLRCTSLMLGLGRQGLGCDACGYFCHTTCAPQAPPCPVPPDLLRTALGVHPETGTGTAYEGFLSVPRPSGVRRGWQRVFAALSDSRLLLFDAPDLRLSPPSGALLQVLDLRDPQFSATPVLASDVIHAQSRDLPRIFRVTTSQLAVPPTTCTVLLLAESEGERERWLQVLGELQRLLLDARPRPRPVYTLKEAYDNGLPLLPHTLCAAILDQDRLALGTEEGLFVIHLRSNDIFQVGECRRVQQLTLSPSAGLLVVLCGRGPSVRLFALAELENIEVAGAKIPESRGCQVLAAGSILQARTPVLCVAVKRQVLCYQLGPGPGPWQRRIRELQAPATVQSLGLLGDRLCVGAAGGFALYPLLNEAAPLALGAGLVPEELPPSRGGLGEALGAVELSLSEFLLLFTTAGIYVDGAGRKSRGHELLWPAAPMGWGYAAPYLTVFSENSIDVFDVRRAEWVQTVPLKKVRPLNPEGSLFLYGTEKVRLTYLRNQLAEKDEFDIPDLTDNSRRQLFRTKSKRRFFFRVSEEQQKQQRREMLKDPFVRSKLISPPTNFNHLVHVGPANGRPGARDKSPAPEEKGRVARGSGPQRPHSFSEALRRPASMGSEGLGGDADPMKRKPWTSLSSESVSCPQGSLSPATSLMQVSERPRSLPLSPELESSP
row,SMILES,Kd
1,O=c1sn(-c2cccc3ccccc23)c(=O)n1Cc1ccccc1 [TIDEGLUSIB],> 30 µM (inactive)
2,CN1N=C(N)c2cn([C@@H]3O[C@H](COP(=O)(O)O)[C@@H](O)[C@H]3O)c3ncnc1c23 [TRICIRIBINE PHOSPHATE],> 30 µM (inactive)
3,CCCS(=O)(=O)Nc1ccc(F)c(C(=O)c2c[nH]c3ncc(-c4ccc(Cl)cc4)cc23)c1F [VEMURAFENIB],> 30 µM (inactive)
4,O=C(Nc1ccc(-c2ccnc(Nc3ccc(N4CCOCC4)cc3)n2)cc1)C1CCCN1 (stereo not drawn) [XL-019],> 30 µM (inactive)

# Biological target: T1, Thyroid hormone receptor-associated protein 3 (Homo sapiens, UniProt Q9Y2W1)
# T1 sequence (Q9Y2W1 whole entry): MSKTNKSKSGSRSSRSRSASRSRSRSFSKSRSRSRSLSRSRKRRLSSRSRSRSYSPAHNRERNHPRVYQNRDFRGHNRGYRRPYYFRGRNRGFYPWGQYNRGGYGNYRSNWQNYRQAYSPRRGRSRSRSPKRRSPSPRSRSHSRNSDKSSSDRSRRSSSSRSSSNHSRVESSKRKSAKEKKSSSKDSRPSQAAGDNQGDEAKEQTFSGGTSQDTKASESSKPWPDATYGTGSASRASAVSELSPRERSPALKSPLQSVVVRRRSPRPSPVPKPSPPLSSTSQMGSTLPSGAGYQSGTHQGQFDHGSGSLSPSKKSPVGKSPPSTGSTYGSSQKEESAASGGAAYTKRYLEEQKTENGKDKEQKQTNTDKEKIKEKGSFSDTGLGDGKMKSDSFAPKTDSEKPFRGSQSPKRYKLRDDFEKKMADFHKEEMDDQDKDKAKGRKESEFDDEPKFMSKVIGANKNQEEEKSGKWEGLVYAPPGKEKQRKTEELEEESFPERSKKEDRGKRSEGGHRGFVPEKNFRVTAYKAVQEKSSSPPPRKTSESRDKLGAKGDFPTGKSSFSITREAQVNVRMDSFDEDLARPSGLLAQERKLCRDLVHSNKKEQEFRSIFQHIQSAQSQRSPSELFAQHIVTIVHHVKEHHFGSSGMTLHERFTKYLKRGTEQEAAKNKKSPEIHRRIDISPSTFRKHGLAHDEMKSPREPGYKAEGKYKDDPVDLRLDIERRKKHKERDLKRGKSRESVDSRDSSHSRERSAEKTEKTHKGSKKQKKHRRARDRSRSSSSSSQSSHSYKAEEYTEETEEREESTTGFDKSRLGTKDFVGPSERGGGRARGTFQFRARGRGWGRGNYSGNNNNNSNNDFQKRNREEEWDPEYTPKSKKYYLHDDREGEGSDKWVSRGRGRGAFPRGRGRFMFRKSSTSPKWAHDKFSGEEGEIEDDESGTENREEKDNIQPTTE
row,SMILES,Kd
1,C[C@@H](c1ccc2nccn2c1)n1nnc2ncc(-c3cnn(C)c3)nc21 [SAVOLITINIB],> 30 µM (inactive)
2,O=c1sn(-c2cccc3ccccc23)c(=O)n1Cc1ccccc1 [TIDEGLUSIB],> 30 µM (inactive)
3,CN1N=C(N)c2cn([C@@H]3O[C@H](COP(=O)(O)O)[C@@H](O)[C@H]3O)c3ncnc1c23 [TRICIRIBINE PHOSPHATE],> 30 µM (inactive)
4,CCCS(=O)(=O)Nc1ccc(F)c(C(=O)c2c[nH]c3ncc(-c4ccc(Cl)cc4)cc23)c1F [VEMURAFENIB],> 30 µM (inactive)
5,O=C(Nc1ccc(-c2ccnc(Nc3ccc(N4CCOCC4)cc3)n2)cc1)C1CCCN1 (stereo not drawn) [XL-019],> 30 µM (inactive)

# Biological target: Dual specificity protein kinase CLK2 (Homo sapiens, UniProt P49760)
# Sequence (P49760 whole entry): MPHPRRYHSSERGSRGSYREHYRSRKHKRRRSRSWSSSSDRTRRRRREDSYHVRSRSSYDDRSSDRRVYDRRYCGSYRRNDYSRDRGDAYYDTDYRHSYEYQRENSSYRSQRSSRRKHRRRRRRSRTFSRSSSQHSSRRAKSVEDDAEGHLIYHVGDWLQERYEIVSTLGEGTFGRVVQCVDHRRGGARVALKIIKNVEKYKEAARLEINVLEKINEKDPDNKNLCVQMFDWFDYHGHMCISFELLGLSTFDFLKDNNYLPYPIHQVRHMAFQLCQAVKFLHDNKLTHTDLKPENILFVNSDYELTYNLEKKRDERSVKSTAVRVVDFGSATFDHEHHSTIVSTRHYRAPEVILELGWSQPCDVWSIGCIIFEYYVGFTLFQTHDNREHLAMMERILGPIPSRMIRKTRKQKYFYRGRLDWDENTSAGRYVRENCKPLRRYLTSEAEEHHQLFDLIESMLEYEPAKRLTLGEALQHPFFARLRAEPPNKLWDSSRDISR
row,SMILES,Kd
1,C[C@@H](c1ccc2nccn2c1)n1nnc2ncc(-c3cnn(C)c3)nc21 [SAVOLITINIB],> 30 µM (inactive)
2,O=c1sn(-c2cccc3ccccc23)c(=O)n1Cc1ccccc1 [TIDEGLUSIB],> 30 µM (inactive)
3,CCCS(=O)(=O)Nc1ccc(F)c(C(=O)c2c[nH]c3ncc(-c4ccc(Cl)cc4)cc23)c1F [VEMURAFENIB],> 30 µM (inactive)
4,O=C(Nc1ccc(-c2ccnc(Nc3ccc(N4CCOCC4)cc3)n2)cc1)C1CCCN1 (stereo not drawn) [XL-019],> 30 µM (inactive)

# Biological target: T2, Phosphatidylinositol 5-phosphate 4-kinase type-2 alpha (Homo sapiens, UniProt P48426)
# T2 sequence (P48426 whole entry): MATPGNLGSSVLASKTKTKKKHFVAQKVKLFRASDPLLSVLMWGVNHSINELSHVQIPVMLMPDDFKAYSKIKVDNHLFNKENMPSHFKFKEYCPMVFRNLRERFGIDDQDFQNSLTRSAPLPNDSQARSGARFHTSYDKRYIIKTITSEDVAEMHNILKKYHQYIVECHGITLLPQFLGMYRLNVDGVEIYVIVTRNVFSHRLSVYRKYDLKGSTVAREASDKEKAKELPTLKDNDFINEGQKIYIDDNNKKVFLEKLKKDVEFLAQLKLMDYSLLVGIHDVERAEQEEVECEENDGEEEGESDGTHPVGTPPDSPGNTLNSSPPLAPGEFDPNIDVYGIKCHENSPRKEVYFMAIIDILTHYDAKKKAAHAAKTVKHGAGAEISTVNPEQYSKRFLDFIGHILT
row,SMILES,Kd
1,C[C@@H](c1ccc2nccn2c1)n1nnc2ncc(-c3cnn(C)c3)nc21 [SAVOLITINIB],> 30 µM (inactive)
2,CN1N=C(N)c2cn([C@@H]3O[C@H](COP(=O)(O)O)[C@@H](O)[C@H]3O)c3ncnc1c23 [TRICIRIBINE PHOSPHATE],> 30 µM (inactive)
3,CCCS(=O)(=O)Nc1ccc(F)c(C(=O)c2c[nH]c3ncc(-c4ccc(Cl)cc4)cc23)c1F [VEMURAFENIB],> 30 µM (inactive)

# Biological target: Proto-oncogene tyrosine-protein kinase receptor Ret (Homo sapiens, UniProt P07949)
row,SMILES,Kd
1,C[C@@H](c1ccc2nccn2c1)n1nnc2ncc(-c3cnn(C)c3)nc21 [SAVOLITINIB],> 30 µM (inactive)
2,O=c1sn(-c2cccc3ccccc23)c(=O)n1Cc1ccccc1 [TIDEGLUSIB],> 30 µM (inactive)
3,CN1N=C(N)c2cn([C@@H]3O[C@H](COP(=O)(O)O)[C@@H](O)[C@H]3O)c3ncnc1c23 [TRICIRIBINE PHOSPHATE],> 30 µM (inactive)
4,CCCS(=O)(=O)Nc1ccc(F)c(C(=O)c2c[nH]c3ncc(-c4ccc(Cl)cc4)cc23)c1F [VEMURAFENIB],> 30 µM (inactive)
5,O=C(Nc1ccc(-c2ccnc(Nc3ccc(N4CCOCC4)cc3)n2)cc1)C1CCCN1 (stereo not drawn) [XL-019],1.33 µM (active)

# Biological target: T3, Isoleucine--tRNA ligase, mitochondrial (Homo sapiens, UniProt Q9NSE4)
# T3 sequence (Q9NSE4 whole entry): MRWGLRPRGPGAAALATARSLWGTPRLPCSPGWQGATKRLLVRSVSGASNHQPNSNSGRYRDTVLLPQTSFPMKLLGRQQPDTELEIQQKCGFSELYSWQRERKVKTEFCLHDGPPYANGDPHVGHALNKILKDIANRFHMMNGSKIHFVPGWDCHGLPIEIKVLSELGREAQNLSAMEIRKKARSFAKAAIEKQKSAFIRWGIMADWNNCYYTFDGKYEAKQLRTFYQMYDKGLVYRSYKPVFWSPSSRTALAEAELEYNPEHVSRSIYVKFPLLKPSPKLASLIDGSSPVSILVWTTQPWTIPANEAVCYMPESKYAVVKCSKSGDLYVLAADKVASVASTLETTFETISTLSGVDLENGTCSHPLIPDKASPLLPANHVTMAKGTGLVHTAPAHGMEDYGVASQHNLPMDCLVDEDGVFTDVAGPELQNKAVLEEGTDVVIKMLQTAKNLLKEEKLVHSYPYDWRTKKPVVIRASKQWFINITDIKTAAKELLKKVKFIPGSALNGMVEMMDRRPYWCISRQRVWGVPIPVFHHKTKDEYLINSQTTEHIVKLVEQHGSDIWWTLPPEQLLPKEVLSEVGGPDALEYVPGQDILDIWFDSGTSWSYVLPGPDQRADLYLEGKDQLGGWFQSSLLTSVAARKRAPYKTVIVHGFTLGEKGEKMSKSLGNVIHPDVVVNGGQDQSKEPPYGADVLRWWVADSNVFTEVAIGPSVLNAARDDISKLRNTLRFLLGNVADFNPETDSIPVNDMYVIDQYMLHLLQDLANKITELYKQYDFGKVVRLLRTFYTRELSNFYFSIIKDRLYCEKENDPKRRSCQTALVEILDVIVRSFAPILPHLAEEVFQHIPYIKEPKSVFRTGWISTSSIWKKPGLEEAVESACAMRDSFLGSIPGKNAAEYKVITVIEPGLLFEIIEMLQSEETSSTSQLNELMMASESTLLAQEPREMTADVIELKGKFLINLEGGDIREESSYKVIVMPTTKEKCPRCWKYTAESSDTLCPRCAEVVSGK
row,SMILES,Kd
1,C[C@@H](c1ccc2nccn2c1)n1nnc2ncc(-c3cnn(C)c3)nc21 [SAVOLITINIB],> 30 µM (inactive)
2,O=c1sn(-c2cccc3ccccc23)c(=O)n1Cc1ccccc1 [TIDEGLUSIB],> 30 µM (inactive)
3,CN1N=C(N)c2cn([C@@H]3O[C@H](COP(=O)(O)O)[C@@H](O)[C@H]3O)c3ncnc1c23 [TRICIRIBINE PHOSPHATE],> 30 µM (inactive)

# Biological target: Phosphatidylethanolamine-binding protein 1 (Homo sapiens, UniProt P30086)
# Sequence (P30086 whole entry): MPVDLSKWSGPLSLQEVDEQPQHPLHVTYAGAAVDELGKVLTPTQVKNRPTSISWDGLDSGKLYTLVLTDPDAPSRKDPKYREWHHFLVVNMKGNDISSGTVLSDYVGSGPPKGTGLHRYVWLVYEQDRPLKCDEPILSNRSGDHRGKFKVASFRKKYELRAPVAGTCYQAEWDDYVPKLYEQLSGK
row,SMILES,Kd
1,C[C@@H](c1ccc2nccn2c1)n1nnc2ncc(-c3cnn(C)c3)nc21 [SAVOLITINIB],> 30 µM (inactive)
2,CN1N=C(N)c2cn([C@@H]3O[C@H](COP(=O)(O)O)[C@@H](O)[C@H]3O)c3ncnc1c23 [TRICIRIBINE PHOSPHATE],> 30 µM (inactive)
3,CCCS(=O)(=O)Nc1ccc(F)c(C(=O)c2c[nH]c3ncc(-c4ccc(Cl)cc4)cc23)c1F [VEMURAFENIB],> 30 µM (inactive)
4,O=C(Nc1ccc(-c2ccnc(Nc3ccc(N4CCOCC4)cc3)n2)cc1)C1CCCN1 (stereo not drawn) [XL-019],> 30 µM (inactive)

# Biological target: Serine/threonine-protein kinase PLK1 (Homo sapiens, UniProt P53350)
# Sequence (P53350 whole entry): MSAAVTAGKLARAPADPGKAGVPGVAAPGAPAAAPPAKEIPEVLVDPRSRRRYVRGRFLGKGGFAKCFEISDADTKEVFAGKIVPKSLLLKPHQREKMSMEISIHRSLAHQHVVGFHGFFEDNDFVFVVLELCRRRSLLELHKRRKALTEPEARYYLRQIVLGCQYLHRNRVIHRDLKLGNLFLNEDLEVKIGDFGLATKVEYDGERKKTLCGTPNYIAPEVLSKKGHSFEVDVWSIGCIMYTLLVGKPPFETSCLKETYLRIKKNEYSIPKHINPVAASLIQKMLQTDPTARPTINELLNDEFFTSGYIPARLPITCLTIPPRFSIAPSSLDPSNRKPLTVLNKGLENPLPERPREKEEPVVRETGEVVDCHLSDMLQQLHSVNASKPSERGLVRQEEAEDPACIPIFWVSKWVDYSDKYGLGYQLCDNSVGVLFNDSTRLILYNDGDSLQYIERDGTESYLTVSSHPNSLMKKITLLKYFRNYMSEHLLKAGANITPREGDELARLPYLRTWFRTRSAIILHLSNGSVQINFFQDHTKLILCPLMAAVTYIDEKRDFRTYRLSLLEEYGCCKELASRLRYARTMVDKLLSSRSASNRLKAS
row,SMILES,Kd
1,CCCS(=O)(=O)Nc1ccc(F)c(C(=O)c2c[nH]c3ncc(-c4ccc(Cl)cc4)cc23)c1F [VEMURAFENIB],> 30 µM (inactive)
2,O=C(Nc1ccc(-c2ccnc(Nc3ccc(N4CCOCC4)cc3)n2)cc1)C1CCCN1 (stereo not drawn) [XL-019],> 30 µM (inactive)
